In ChEMBL document CHEMBL4414628, “Engineering Fluorine into Verticillins (Epipolythiodioxopiperazine Alkaloids) via Precursor-Directed Biosynthesis” (J Nat Prod, 2019):

Legend:
MDA-MB-231 = assay: Antiproliferative activity against human MDA-MB-231 cells assessed as inhibition of cell growth incubated for 72 hrs by CellTiter 96 aqueous one solution assay; type: functional, cell-based; details: MDA-MB-231, 72 h
OVCAR-3 = assay: Antiproliferative activity against human OVCAR3 cells assessed as inhibition of cell growth incubated for 72 hrs by CellTiter 96 aqueous one solution assay; type: functional, cell-based; details: OVCAR-3, 72 h
MDA-MB-435 = assay: Antiproliferative activity against human MDA-MB-435 cells assessed as inhibition of cell growth incubated for 72 hrs by CellTiter 96 aqueous one solution assay; type: functional, cell-based; details: MDA-MB-435, 72 h
[1] = target: Histone-lysine N-methyltransferase 2A (Homo sapiens, UniProt Q03164); assay: Inhibition of human recombinant MLL1 using [3H]S-adenosyl-methionine as substrate
Sequence of Histone-lysine N-methyltransferase 2A (Q03164 1-2718 limits assumed): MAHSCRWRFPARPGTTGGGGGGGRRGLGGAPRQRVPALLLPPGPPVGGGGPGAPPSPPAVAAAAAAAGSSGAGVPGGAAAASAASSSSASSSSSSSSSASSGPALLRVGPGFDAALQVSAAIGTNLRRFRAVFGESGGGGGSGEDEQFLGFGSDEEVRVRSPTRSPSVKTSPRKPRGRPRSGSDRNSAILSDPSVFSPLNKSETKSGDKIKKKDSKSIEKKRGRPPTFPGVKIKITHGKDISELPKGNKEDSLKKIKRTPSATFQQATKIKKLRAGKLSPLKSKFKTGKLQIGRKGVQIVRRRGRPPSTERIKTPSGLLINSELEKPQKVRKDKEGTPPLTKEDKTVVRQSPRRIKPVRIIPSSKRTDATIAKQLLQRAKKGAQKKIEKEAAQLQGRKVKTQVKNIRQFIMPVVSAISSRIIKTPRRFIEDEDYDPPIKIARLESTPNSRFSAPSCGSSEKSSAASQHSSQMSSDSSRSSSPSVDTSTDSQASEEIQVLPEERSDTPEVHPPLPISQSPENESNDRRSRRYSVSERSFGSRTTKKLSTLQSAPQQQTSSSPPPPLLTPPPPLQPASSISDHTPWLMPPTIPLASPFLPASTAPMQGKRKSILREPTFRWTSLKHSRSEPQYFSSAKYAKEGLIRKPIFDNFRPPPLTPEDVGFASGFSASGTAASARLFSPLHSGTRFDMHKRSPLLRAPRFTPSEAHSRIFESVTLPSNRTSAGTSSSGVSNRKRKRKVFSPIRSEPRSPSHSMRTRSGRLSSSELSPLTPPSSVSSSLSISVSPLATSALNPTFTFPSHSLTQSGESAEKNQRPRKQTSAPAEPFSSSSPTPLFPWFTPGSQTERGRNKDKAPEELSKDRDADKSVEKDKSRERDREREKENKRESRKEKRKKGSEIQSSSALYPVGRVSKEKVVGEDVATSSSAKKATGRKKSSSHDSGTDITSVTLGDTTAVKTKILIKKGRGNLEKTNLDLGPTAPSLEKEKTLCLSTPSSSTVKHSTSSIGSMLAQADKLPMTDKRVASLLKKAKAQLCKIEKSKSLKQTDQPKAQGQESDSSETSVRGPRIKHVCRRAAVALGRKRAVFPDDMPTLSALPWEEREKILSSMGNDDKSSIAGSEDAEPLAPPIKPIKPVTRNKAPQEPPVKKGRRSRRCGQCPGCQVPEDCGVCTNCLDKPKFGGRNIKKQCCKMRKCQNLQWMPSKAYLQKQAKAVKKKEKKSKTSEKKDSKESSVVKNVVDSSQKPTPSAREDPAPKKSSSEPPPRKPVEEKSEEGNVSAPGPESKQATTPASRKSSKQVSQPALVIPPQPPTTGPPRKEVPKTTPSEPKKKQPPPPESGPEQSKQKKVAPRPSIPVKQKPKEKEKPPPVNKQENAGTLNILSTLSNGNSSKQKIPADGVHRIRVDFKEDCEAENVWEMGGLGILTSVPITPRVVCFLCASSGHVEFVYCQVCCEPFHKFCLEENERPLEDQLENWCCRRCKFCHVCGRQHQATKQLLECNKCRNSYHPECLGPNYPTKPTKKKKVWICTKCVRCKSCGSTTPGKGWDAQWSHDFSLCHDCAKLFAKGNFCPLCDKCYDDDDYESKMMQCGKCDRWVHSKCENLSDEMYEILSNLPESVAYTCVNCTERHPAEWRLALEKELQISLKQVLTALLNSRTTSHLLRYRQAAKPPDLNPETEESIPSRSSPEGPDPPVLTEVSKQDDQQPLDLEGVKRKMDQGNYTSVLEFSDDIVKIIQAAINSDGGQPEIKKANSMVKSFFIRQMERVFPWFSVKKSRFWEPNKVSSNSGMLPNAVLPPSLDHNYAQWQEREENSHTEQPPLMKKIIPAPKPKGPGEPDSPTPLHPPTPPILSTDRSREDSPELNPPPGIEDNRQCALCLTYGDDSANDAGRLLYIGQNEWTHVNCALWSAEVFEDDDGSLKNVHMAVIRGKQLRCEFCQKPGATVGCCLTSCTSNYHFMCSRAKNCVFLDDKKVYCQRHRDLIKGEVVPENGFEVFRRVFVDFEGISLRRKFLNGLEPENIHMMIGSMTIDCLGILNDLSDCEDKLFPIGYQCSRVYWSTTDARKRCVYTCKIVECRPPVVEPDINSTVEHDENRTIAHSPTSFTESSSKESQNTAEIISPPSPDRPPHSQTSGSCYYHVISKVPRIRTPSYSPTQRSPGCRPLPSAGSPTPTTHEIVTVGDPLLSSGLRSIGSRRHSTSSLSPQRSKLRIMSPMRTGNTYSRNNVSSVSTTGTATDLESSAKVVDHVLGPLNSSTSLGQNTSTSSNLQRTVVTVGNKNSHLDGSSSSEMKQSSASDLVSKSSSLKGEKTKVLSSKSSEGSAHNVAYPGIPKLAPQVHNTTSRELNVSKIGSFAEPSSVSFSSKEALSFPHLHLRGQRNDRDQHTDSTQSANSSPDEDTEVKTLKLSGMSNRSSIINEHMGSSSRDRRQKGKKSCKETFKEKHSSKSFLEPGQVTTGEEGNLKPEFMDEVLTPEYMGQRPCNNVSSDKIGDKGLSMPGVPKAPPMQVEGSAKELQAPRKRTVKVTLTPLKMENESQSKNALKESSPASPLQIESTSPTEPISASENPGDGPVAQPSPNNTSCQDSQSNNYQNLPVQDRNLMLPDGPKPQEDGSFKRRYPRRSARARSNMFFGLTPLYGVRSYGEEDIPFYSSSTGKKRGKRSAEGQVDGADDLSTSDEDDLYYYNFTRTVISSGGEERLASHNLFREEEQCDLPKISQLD
Sequence of Histone-lysine N-methyltransferase 2A (Q03164 2719-3969 limits assumed): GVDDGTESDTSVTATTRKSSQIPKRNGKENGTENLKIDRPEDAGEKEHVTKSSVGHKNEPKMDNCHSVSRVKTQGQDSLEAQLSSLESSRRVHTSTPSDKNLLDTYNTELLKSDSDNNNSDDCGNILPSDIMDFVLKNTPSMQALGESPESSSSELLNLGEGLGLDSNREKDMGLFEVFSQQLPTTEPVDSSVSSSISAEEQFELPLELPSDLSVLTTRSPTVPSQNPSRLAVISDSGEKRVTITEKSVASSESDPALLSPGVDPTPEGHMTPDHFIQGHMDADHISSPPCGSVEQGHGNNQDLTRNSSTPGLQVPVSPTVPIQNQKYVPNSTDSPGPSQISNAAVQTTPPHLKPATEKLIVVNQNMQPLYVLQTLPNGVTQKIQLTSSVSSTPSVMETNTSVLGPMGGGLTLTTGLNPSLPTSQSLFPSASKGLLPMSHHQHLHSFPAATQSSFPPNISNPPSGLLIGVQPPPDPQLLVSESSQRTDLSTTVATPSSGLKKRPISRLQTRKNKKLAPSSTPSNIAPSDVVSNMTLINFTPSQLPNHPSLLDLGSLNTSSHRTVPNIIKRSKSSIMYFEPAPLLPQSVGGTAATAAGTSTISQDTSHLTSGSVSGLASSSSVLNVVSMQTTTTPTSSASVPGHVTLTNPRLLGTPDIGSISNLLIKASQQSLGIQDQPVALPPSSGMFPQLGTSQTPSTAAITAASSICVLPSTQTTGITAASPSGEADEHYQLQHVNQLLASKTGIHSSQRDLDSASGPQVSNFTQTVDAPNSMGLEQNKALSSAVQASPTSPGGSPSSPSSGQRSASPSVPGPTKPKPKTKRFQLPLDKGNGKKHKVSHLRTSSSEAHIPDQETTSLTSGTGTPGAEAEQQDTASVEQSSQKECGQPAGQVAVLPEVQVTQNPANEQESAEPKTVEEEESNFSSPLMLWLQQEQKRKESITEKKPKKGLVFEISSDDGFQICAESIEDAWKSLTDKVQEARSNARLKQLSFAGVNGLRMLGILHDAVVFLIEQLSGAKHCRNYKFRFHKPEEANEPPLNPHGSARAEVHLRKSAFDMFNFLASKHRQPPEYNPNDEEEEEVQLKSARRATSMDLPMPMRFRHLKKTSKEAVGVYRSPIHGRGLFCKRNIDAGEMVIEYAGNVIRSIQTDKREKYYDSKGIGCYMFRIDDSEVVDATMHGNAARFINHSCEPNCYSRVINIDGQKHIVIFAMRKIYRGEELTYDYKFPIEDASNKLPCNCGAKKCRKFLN

CC[C@@]12SS[C@]3(C(=O)N1C)[C@@H](O)[C@]1([C@@]45c6cc(F)ccc6N[C@@H]4N4C(=O)[C@]6(CC)SS[C@]4(C(=O)N6C)[C@H]5O)c4ccccc4N[C@@H]1N3C2=O
IC50 (MDA-MB-231): 46 nM
IC50 (OVCAR-3): 39 nM
IC50 (MDA-MB-435): 49 nM

CC[C@@]12SS[C@]3(C(=O)N1C)[C@@H](O)[C@]1([C@@]45c6cc(F)ccc6N[C@@H]4N4C(=O)[C@]6(CC)SS[C@]4(C(=O)N6C)[C@H]5O)c4cc(F)ccc4N[C@@H]1N3C2=O
IC50 (MDA-MB-231): 840 nM
IC50 (OVCAR-3): 920 nM
IC50 (MDA-MB-435): 830 nM

CC[C@@]12SS[C@]3(C(=O)N1C)[C@@H](O)[C@]1([C@@]45c6ccccc6N[C@@H]4N4C(=O)[C@]6(C)SS[C@]4(C(=O)N6C)[C@H]5O)c4ccccc4N[C@@H]1N3C2=O
IC50 (MDA-MB-231): 22 nM
IC50 (OVCAR-3): 30 nM
IC50 (MDA-MB-435): 30 nM

CN1C(=O)[C@]23SS[C@@]1(C)C(=O)N2[C@H]1Nc2ccc(F)cc2[C@@]1([C@@]12c4cc(F)ccc4N[C@@H]1N1C(=O)[C@]4(C)SS[C@]1(C(=O)N4C)[C@H]2O)[C@@H]3O
IC50 (MDA-MB-231): 59 nM
IC50 (OVCAR-3): 75 nM
IC50 (MDA-MB-435): 65 nM

CC[C@@]12SS[C@]3(C(=O)N1C)[C@@H](O)[C@]1([C@@]45c6cc(F)ccc6N[C@@H]4N4C(=O)[C@]6(C)SS[C@]4(C(=O)N6C)[C@H]5O)c4ccccc4N[C@@H]1N3C2=O
IC50 (MDA-MB-231): 70 nM
IC50 (OVCAR-3): 100 nM
IC50 (MDA-MB-435): 72 nM

CN1C(=O)[C@]23SS[C@@]1(C)C(=O)N2[C@H]1Nc2ccccc2[C@@]1([C@@]12c4ccccc4N[C@@H]1N1C(=O)[C@]4(C)SS[C@]1(C(=O)N4C)[C@H]2O)[C@@H]3O
IC50 (MDA-MB-231): 43 nM
IC50 [1]: 800 nM
IC50 (OVCAR-3): 37 nM
IC50 (MDA-MB-435): 37 nM

CC[C@@]12SS[C@]3(C(=O)N1C)[C@@H](O)[C@]1([C@@]45c6ccccc6N[C@@H]4N4C(=O)[C@]6(C)SS[C@]4(C(=O)N6C)[C@H]5O)c4cc(F)ccc4N[C@@H]1N3C2=O
IC50 (MDA-MB-231): 37 nM
IC50 (OVCAR-3): 37 nM
IC50 (MDA-MB-435): 39 nM

CC[C@@]12SS[C@]3(C(=O)N1C)[C@@H](O)[C@]1([C@@]45c6ccccc6N[C@@H]4N4C(=O)[C@]6(CC)SS[C@]4(C(=O)N6C)[C@H]5O)c4ccccc4N[C@@H]1N3C2=O
IC50 (MDA-MB-231): 71 nM
IC50 (OVCAR-3): 100 nM
IC50 (MDA-MB-435): 88 nM

CC[C@@]12SS[C@]3(C(=O)N1C)[C@@H](O)[C@]1([C@@]45c6cc(F)ccc6N[C@@H]4N4C(=O)[C@]6(C)SS[C@]4(C(=O)N6C)[C@H]5O)c4cc(F)ccc4N[C@@H]1N3C2=O
IC50 (MDA-MB-231): 110 nM
IC50 (OVCAR-3): 180 nM
IC50 (MDA-MB-435): 130 nM

CN1C(=O)[C@]23SS[C@@]1(C)C(=O)N2[C@H]1Nc2ccccc2[C@@]1([C@@]12c4cc(F)ccc4N[C@@H]1N1C(=O)[C@]4(C)SS[C@]1(C(=O)N4C)[C@H]2O)[C@@H]3O
IC50 (MDA-MB-231): 230 nM
IC50 (OVCAR-3): 180 nM
IC50 (MDA-MB-435): 240 nM

CC(=O)O[C@H]1C(=O)[C@@]2(C)[C@H]([C@H](OC(=O)c3ccccc3)[C@]3(O)C[C@H](OC(=O)[C@H](O)[C@@H](NC(=O)c4ccccc4)c4ccccc4)C(C)=C1C3(C)C)[C@]1(OC(C)=O)CO[C@@H]1C[C@@H]2O [PACLITAXEL]
IC50 (MDA-MB-231): 170 nM
IC50 (OVCAR-3): 5 nM
IC50 (MDA-MB-435): 0.4 nM
